From publication PMC12374583, “Targeting complement C3 with Tanshinone I decreases microglia-mediated synaptic engulfment to exert antidepressant effects” (Theranostics, 2025)

Columns and labels:
[1] = biological target: T1, C3 (complement C3), RED-NHS labelled; experiment: microscale thermophoresis (Monolith NT.[…]); type: binding; conditions: 25 °C, PBS with 5% DMSO compound stocks, Tan I up to 25 µM
T1 construct: human purified C3 equally possible

C3 (BV2 cell proteins) [2] = biological target: T2, C3 (BV2 cell proteins) (Mus musculus, UniProt P01027); experiment: DARTS (Pronase), MS and Western blot; type: biochemical; conditions: 200 µM Tan I, 1 h; Pronase 30 min
T2 construct: endogenous C3 in BV2 (mouse microglial line) protein extract; detected by Western blot, 130-250 kDa band identified by MS
T2 sequence (P01027 25-666): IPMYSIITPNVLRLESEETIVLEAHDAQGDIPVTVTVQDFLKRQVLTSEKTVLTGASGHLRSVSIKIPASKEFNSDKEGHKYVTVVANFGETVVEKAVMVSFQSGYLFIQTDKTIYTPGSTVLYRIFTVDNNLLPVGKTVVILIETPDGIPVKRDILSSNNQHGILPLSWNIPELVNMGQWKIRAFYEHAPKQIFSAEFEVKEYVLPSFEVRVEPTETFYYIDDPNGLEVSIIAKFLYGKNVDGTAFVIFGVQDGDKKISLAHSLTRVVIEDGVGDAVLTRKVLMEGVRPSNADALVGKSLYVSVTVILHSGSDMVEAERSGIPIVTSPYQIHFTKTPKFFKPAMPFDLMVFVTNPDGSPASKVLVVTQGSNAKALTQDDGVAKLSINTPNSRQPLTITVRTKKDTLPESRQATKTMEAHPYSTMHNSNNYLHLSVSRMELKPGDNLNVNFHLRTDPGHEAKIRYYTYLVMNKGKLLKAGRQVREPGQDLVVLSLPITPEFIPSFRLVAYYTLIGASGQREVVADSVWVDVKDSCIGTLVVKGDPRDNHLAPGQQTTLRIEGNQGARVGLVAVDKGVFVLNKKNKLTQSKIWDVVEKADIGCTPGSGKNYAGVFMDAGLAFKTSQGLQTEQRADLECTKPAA
T2 sequence (P01027 671-1663): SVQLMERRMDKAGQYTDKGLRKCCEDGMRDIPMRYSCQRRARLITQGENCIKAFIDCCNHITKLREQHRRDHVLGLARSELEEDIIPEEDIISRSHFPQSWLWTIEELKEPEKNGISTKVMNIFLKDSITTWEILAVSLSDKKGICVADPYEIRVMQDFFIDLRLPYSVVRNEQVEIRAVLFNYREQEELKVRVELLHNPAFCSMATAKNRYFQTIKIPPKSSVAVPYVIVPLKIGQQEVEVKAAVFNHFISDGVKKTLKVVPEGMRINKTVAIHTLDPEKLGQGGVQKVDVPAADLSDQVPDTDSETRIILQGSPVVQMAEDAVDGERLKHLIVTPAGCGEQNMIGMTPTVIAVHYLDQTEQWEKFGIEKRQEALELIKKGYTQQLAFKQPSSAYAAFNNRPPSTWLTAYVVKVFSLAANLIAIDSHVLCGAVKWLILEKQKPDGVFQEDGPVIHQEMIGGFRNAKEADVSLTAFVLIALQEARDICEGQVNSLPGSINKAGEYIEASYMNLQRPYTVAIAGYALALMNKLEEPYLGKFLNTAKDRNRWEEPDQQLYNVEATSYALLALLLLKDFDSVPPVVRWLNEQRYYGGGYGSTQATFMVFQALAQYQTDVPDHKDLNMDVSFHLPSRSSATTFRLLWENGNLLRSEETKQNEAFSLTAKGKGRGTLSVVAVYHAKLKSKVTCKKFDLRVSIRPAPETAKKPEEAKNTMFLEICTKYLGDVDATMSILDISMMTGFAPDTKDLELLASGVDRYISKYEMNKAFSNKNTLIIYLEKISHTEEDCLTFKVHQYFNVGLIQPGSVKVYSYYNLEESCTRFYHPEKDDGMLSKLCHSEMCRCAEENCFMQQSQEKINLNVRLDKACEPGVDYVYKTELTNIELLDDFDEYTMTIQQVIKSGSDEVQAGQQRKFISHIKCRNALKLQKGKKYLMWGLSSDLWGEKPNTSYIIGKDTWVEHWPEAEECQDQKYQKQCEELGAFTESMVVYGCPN

C3 (BV2 cell proteins) [3] = biological target: T2, C3 (BV2 cell proteins); experiment: CETSA in BV2 protein extract, Western blot; type: biochemical; conditions: Tan I 1 h; 40-65 °C, 3 min

- Kd [1]: 3.75 ± 3.31 µM
Compound: Cc1coc2c1C(=O)C(=O)c1c-2ccc2c(C)cccc12 [Tan I]
- protection from proteolysis (DARTS) (C3 (BV2 cell proteins) [2]): Tan I protected C3 from proteolytic degradation
- thermal stabilisation (CETSA) (C3 (BV2 cell proteins) [3]): Tan I significantly enhances the thermal stability of C3 in a certain temperature range
